Peptide text beside a SMILES is read from it. * marks the point of attachment. Cbz = O=C(OCc1ccccc1)*
Tests used:
[1] = injected by the subcutaneous route, diabetic patients; cited from earlier work
[2] = Solubility in a buffer solution at 50 mM Tris/HCl pH 7.4 (visual inspection); type: physicochemical
Experimental: The solubility of the substituted citrates (A1, A2, A3 and A4) was measured in a buffer solution.
In a buffer solution at 50 mM of Tris/HCl, pH 7.4 (1 mL), the substituted citrate in powder form (20 mg) is introduced. The tubes are stirred (rolling shaker) for 30 minutes at ambient temperature, then inspected visually. The pH is adjusted to 7.4±0.4.
The solubility of the compounds of the prior art (CE1 and CE2) was measured.
4 mL of a buffer solution at 50 mM of Tris/HCl at pH 7.4 were introduced into a glass tube, at ambient temperature. The compounds in powder form were added successively in the amount of 8 mg per addition. After each addition of compound, the tubes were stirred (rolling shaker) for 30 minutes at ambient temperature, then inspected visually. The pH is adjusted to 7.4±0.4.
The concentrations at which insoluble matter was observed are defined as being greater than the limit of solubility of the compound.

[3] = Solubility in the presence of insulin lispro 100 IU/mL (commercial Humalog, visual inspection); type: physicochemical; details: commercial insulin lispro solution (Humalog) 100 IU/mL, aqueous with cosolvent or surfactant or cyclodextrin, thermodynamic from solid, pH 7.4±0.4, ambient temperature, 30 minutes stirring, read-out: Solubility (limit of solubility)
Experimental: The solubility of the substituted citrates (A1, A2, A3 and A4) is measured in the presence of insulin lispro 100 U/mL. In a commercial solution of insulin lispro (Humalog®) (1 mL), the substituted citrate in powder form (20 mg) is introduced. The tube was stirred (rolling shaker) for 30 minutes at ambient temperature, then inspected visually. The pH is adjusted to 7.4±0.4.
The solubility of the compounds of the prior art was also measured in the presence of insulin lispro 100 U/mL. 1 mL of a commercial solution of Humalog was introduced into a glass tube, at ambient temperature. The compounds in powder form were added successively in the amount of 2 mg per addition. After each addition of compound, the tubes were stirred (rolling shaker) for 30 minutes at ambient temperature, then inspected visually. The pH is adjusted to 7.4±0.4.
The concentrations at which insoluble matter was observed are defined as being greater than the limit of solubility of the compound in the presence of insulin lispro 100 IU/mL.

[4] = biological target: T1, hexameric R6 form of insulin lispro (Homo sapiens, UniProt P01308, K53P/P52K); test: Association state of the insulin lispro evaluated by circular dichroism (CD signal at 240 nm); type: physicochemical; details: insulin lispro 100 IU/mL (Humalog), pH 7.4; additive alone (EDTA 300 μM; substituted citrate 7.3 or 14.6 mg/mL)
T1 construct: The insulin lispro has a strong signal at 240 nm characteristic of the hexameric R6 form; purchased Lilly
T1 sequence (P01308 25-54 P52K/K53P limits assumed): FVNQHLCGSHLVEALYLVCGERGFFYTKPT
T1 sequence (P01308 90-110 limits assumed): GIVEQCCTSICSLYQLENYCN
Experimental: Circular dichroism makes it possible to study the secondary and quaternary structure of the insulin. The monomers of insulin self-organize to form dimers and hexamers. […] There are two hexameric forms, R6 form and T6 form. […] The loss of the signal at 240 nm is connected with a destabilization of the hexamer and the conversion from R6 to T6.
For a final volume of 100 mL of formulation, with a concentration of substituted citrate at 7.3 mg/mL and a concentration of 9.3 mM of citrate, the different reagents are added in the quantities specified below and in the following order:
For a final volume of 100 mL of formulation, with a concentration of substituted citrate at 7.3 mg/mL, the different reagents are added in the quantities specified below and in the following order:
For a final volume of 100 mL of formulation, with a concentration of 300 μM of EDTA, the different reagents are added in the quantities specified below and in the following order:
(§1) Two measurement series were carried out.
Circular dichroism makes it possible to study the secondary and quaternary structures of insulin. The monomers of insulin self-organize to form dimers and hexamers. […]
For a final volume of 100 mL of formulation, with a concentration of substituted citrate at 7.3 mg/mL or 14.6 mg/mL, the different reagents are added in the quantities specified below and in the following order: […]

[5] = biological target: T2, hexameric R6 form of human insulin (Homo sapiens, UniProt P01308); test: Association state of human insulin evaluated by circular dichroism (CD signal at 240 nm); type: physicochemical; details: human insulin 100 IU/mL (Humulin R), pH 7.4; additive alone (EDTA 300 μM or 6 mM; substituted citrate 7.3 or 14.6 mg/mL)
T2 construct: The human insulin has a strong signal at 240 nm, characteristic of the hexameric R6 form
T2 sequence (P01308 25-54 limits assumed): as the sequence (P01308 25-54 P52K/K53P limits assumed) above, with K28P, P29K counted along it
Experimental: Circular dichroism makes it possible to study the secondary and quaternary structures of insulin. The monomers of insulin self-organize to form dimers and hexamers. […] There are two hexameric forms, the R6 form and the T6 form. […] The loss of the signal at 240 nm is connected with a destabilization of the hexamer and the conversion from R6 to T6.
For a final volume of 100 mL of formulation, with a concentration of substituted citrate at 7.3 mg/mL and a concentration of 9.3 mM of citrate, the different reagents are added in quantities specified below and in the following order:
For a final volume of 100 mL of formulation, with a concentration of substituted citrate at 7.3 mg/mL or 14.6 mg/mL, the different reagents are added in the quantities specified below and in the following order:
For a final volume of 100 mL of formulation, with a concentration of 300 μM or 6 mM of EDTA, the different reagents are added in the quantities specified below and in the following order:
as §1

[6] = 50 mM Tris/HCl buffer, aqueous buffer, thermodynamic from solid, buffer solution 50 mM Tris/HCl, pH 7.4, ambient temperature, 30 minutes stirring, read-out: Solubility (limit of solubility)
[7] = pH 7.4, thermodynamic from solid, medium not named at this place, sums up Tables 3 and 4 (Tris/HCl buffer and Humalog), read-out: limit of solubility (summary statement)

| solubility at 30 min [2, 6] [µg/mL] | solubility at 30 min [2, 7] [µg/mL] | solubility at 30 min [3] [µg/mL] | impact on the CD signal at 240 nm / R6 form of the insulin lispro hexamer [4] | impact on the CD signal at 240 nm / R6 form of the human insulin hexamer [5] | Compound | time after which a hypoglycemic effect is produced [1] [min] |
| --- | --- | --- | --- | --- | --- | --- |
| – | – | – | – | – | human insulin: human insulin produced by genetic engineering, injected subcutaneously | 60 |
| < 2000 | < 2000 | < 2000 | – | – | O=C(N[C@@H](Cc1ccccc1)C(=O)O)c1ccccc1 [CE2, Benzoyl-L- phenylalanine] | – |
| < 2000 | < 2000 | < 2000 | – | – | O=C(N[C@@H](Cc1ccccc1)C(=O)N[C@@H](Cc1ccccc1)C(=O)O)OCc1ccccc1 [CE1, N-Carbobenzoxy-L- phenylalanyl-L- phenylalanine] (Cbz-Phe-Phe-OH) | – |
| – | – | – | completely destructures the R6 form | completely destructures the R6 form | O=C(O)CN(CCN(CC(=O)O)CC(=O)O)CC(=O)O [EDTA] | – |

Reference: patent US10792335B2, “Rapid-acting insulin composition comprising a substituted citrate” (ADOCIA, priority 2015, dated 2020)
